Source: ChEMBL document CHEMBL1201862, “PubChem BioAssay data set” (2004)
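Cultured in 96-well plates, cells were exposed to test compound for 48 hours across five concentrations. At the GI50, growth is halved.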 Active and inactive are the calls of the source. No stated cut-off is given here; in the data, active = GI50 up to about 1.1 µM and inactive = higher.

How the values were obtained:
Experiment in all cases: inhibition of tumour cell growth, NCI panel, 48 h
BT-549 = system: BT-549
MDA-MB-435 = system: MDA-MB-435
UACC-257 = system: UACC-257
HCT-15 = system: HCT-15
EKVX = system: EKVX
A498 = system: A498
MCF7 = system: MCF7
NCI-H460 = system: NCI-H460
RXF 393 = system: RXF 393
NCI-H23 = system: NCI-H23
Malme-3M = system: Malme-3M
UACC-62 = system: UACC-62
SF-539 = system: SF-539
MDA-MB-231 = system: MDA-MB-231
SK-MEL-28 = system: SK-MEL-28
SNB-19 = system: SNB-19
NCI-H522 = system: NCI-H522
OVCAR-4 = system: OVCAR-4
HOP-92 = system: HOP-92

| SMILES | GI50 (BT-549) | GI50 (MDA-MB-435) | GI50 (UACC-257) | GI50 (HCT-15) [µM] | GI50 (EKVX) | GI50 (A498) | GI50 (MCF7) | GI50 (NCI-H460) | GI50 (RXF 393) | GI50 (NCI-H23) | GI50 (Malme-3M) | GI50 (UACC-62) | GI50 (SF-539) | GI50 (MDA-MB-231) | GI50 (SK-MEL-28) | GI50 (SNB-19) | GI50 (NCI-H522) | GI50 (OVCAR-4) | GI50 (HOP-92) |
| --- | --- | --- | --- | --- | --- | --- | --- | --- | --- | --- | --- | --- | --- | --- | --- | --- | --- | --- | --- |
| Fc1ccc(/C(=N/Cc2ccccc2)N2CCOCC2)cc1 | > 100 µM (inactive) | > 100 µM (inactive) | > 100 µM (inactive) | > 100 | > 100 µM (inactive) | > 100 µM (inactive) | > 100 µM (inactive) | > 100 µM (inactive) | > 100 µM (inactive) | > 100 µM (inactive) | > 100 µM (inactive) | > 100 µM (inactive) | > 100 µM (inactive) | > 100 µM (inactive) | > 100 µM (inactive) | > 100 µM (inactive) | – | – | – |
| CCN(CC)CCCNc1nncc2cc3c([nH]c4ccccc43)c(C)c12 | 17.9 µM (inactive) | 18.2 µM (inactive) | 15.6 µM (inactive) | 16 | 8.38 µM (inactive) | 15.4 µM (inactive) | 13.6 µM (inactive) | 5.6 µM (inactive) | – | 14.1 µM (inactive) | 17.6 µM (inactive) | 15.7 µM (inactive) | 16 µM (inactive) | 4.65 µM (inactive) | 17.7 µM (inactive) | 12.4 µM (inactive) | 4.15 µM (inactive) | – | – |
| CC(C)(C)OC(=O)N1C(OP(=O)(Oc2ccccc2)Oc2ccccc2)=COc2cccnc21 | 63.7 µM (inactive) | 39.4 µM (inactive) | 30 µM (inactive) | 48.8 | 60.7 µM (inactive) | – | 32.7 µM (inactive) | 31.8 µM (inactive) | 91.8 µM (inactive) | 45.5 µM (inactive) | 30.6 µM (inactive) | 64.6 µM (inactive) | > 100 µM (inactive) | 71 µM (inactive) | 54.2 µM (inactive) | 78.9 µM (inactive) | 47 µM (inactive) | 45.8 µM (inactive) | 26.1 µM (inactive) |
| Cc1cc(C)nc(NS(=O)(=O)c2ccc(NNC(=O)c3cccc4c(NNc5ccc(S(=O)(=O)Nc6nc(C)cc(C)n6)cc5)c5ccccc5nc34)cc2)n1 | 24.7 µM (inactive) | 20.9 µM (inactive) | 31 µM (inactive) | 19.7 | 18.7 µM (inactive) | – | 31.5 µM (inactive) | 20.6 µM (inactive) | 20.8 µM (inactive) | 22.8 µM (inactive) | 20.7 µM (inactive) | 18.5 µM (inactive) | 20.3 µM (inactive) | 14.6 µM (inactive) | 23.4 µM (inactive) | 24.5 µM (inactive) | 18.1 µM (inactive) | 23.3 µM (inactive) | 17.8 µM (inactive) |
| CCCCCCCCCc1nn2c(Cc3ccccc3)nnc2s1 | 18.8 µM (inactive) | 26.3 µM (inactive) | 23.5 µM (inactive) | 19.5 | 15.5 µM (inactive) | 18.2 µM (inactive) | 41.1 µM (inactive) | 18.5 µM (inactive) | 18.5 µM (inactive) | 19.2 µM (inactive) | – | 18 µM (inactive) | 18.1 µM (inactive) | 24.5 µM (inactive) | 17.7 µM (inactive) | 18.2 µM (inactive) | 14 µM (inactive) | 20 µM (inactive) | – |
| CC(=O)Oc1ccc(-c2cc3ccccc3oc2=O)cc1OC(C)=O | 35.2 µM (inactive) | 27.1 µM (inactive) | 24.4 µM (inactive) | 10.7 | 21.8 µM (inactive) | 35.6 µM (inactive) | 59.2 µM (inactive) | 22.4 µM (inactive) | – | 53.2 µM (inactive) | 51.4 µM (inactive) | – | 21.6 µM (inactive) | 28.6 µM (inactive) | 43.5 µM (inactive) | 31.6 µM (inactive) | 3.78 µM (inactive) | 51.3 µM (inactive) | – |
| CC1CSc2nc3nc(S)nc-3c(O)n2C1 (stereo not drawn) | > 100 µM (inactive) | > 100 µM (inactive) | > 100 µM (inactive) | > 100 | > 100 µM (inactive) | > 100 µM (inactive) | > 100 µM (inactive) | > 100 µM (inactive) | > 100 µM (inactive) | > 100 µM (inactive) | > 100 µM (inactive) | > 100 µM (inactive) | > 100 µM (inactive) | > 100 µM (inactive) | > 100 µM (inactive) | > 100 µM (inactive) | – | > 100 µM (inactive) | – |
